Molecular target: Human factor D (Homo sapiens (Human), UniProt P00746)
Assay: Human Factor D Assay
Format: biochemical
Conditions: human factor D 80 nM, substrate Z-L-Lys-SBzl, DTNB, OD405
Procedure, shortened: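 Serum-purified human factor D (80 nM final) preincubated with compound 5 min at room temperature in 50 mM Tris, 1M NaCl, pH 7.5. Z-L-Lys-SBzl and DTNB added at 10 μM final each; OD405 followed kinetically over 30 min. IC50 by non-linear regression of percent inhibition.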

Human factor D, sequence (P00746 26-253): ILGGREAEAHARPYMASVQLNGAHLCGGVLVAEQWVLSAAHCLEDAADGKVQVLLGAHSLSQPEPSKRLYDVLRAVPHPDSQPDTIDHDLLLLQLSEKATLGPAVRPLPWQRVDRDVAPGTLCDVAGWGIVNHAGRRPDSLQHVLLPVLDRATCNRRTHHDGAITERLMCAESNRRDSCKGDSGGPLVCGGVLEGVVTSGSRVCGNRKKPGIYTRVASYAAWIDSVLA

CC(=O)c1cn(CC(=O)N2C[C@H](F)C[C@H]2C(=O)Nc2cccc(Br)n2)c2ccc(C3(NC(=O)OC(C)(C)C)CC3)cc12 [Compound 123, tert-butyl 1-(3-acetyl-1-(2-((2S,4R)-2-(6-bromopyridin-2-ylcarbamoyl)-4-fluoropyrrolidin-1-yl)-2-oxoethyl)-1H-indol-5-yl)cyclopropylcarbamate]
IC50: < 1000 nM

CC(=O)c1cn(CC(=O)N2C[C@H](F)C[C@H]2C(=O)Nc2cccc(-c3ccccc3Cl)c2F)c2c(C#Cc3ncc(F)cn3)cccc12 [Compound 124, (2S,4R)-1-(2-(3-acetyl-7-((5-fluoropyrimidin-2-yl)ethynyl)-1H-indol-1-yl)acetyl)-N-(2′-chloro-2-fluorobiphenyl-3-yl)-4-fluoropyrrolidine-2-carboxamide]
IC50: < 1000 nM

Source: patent US9758537B2 (Achillion Pharmaceuticals, Inc., priority 2014, dated 2017)
